Data on one compound can be found in ChEMBL document CHEMBL4251700, “Novel Staphyloxanthin Inhibitors with Improved Potency against Multidrug Resistant Staphylococcus aureus” (ACS Med Chem Lett, 2018).

Residue numbers refer to the chain shown, from its start. The source made the active and inactive calls. The calls are words filed in the database; no cut-off is given here.

In data set [1] the test system is Staphylococcus aureus. Kind of data set: Antibacterial activity against Staphylococcus aureus Newman infected in BALB/c mouse assessed as reduction of bacterial burden in liver at 0.4 mg, ip bid administered at 12 hrs prior to bacterial infection dosed at 12 intervals for 4.5 days relative to control. The data set is classed as functional. Details: scale not given: the % may be the effect or the level left.

Data set [2] relates to Staphylococcus aureus. Kind of data set: Growth inhibition of methicillin-resistant Staphylococcus aureus USA300 LAC at 0.2 mM incubated overnight measured at 30 mins interval. In kind it is organism-based. Particulars: 0.5 h, 200 µM.
For data set [3], the system named is Staphylococcus aureus. Briefly: Growth inhibition of methicillin-resistant Staphylococcus aureus USA400 MW2 at 0.2 mM incubated overnight measured at 30 mins interval. The data set is classed as organism-based. Particulars: 0.5 h, 200 µM.
A short description of data set [4]: Half life in human liver microsomes at 2 uM by LC-MS/MS analysis. In kind it is ADME, microsome.
Another data set concerns Trichophyton verrucosum. Kind of data set: Antifungal activity against Trichophyton verrucosum after 7 days. The data set is classed as functional, organism-based.
A further data set relates to Trichophyton rubrum. Kind of data set: Antifungal activity against Trichophyton rubrum after 7 days by broth microdilution method. In kind it is functional, organism-based.
Data set [5] deals with Staphylococcus aureus. Briefly: Antibacterial activity against Staphylococcus aureus Newman infected in BALB/c mouse assessed as reduction of bacterial burden in liver at 0.1 mg, ip bid for 3.5 days administered 6 hrs post bacterial infection measured 84 hrs post infection relative to control. Details: scale not given: the % may be the effect or the level left.
For data set [6], the target named is T1, 4,4'-diapophytoene desaturase (4,4'-diaponeurosporene-forming) (Staphylococcus aureus (strain MW2)) (UniProt Q8NUQ6).
T1 sequence (whole entry): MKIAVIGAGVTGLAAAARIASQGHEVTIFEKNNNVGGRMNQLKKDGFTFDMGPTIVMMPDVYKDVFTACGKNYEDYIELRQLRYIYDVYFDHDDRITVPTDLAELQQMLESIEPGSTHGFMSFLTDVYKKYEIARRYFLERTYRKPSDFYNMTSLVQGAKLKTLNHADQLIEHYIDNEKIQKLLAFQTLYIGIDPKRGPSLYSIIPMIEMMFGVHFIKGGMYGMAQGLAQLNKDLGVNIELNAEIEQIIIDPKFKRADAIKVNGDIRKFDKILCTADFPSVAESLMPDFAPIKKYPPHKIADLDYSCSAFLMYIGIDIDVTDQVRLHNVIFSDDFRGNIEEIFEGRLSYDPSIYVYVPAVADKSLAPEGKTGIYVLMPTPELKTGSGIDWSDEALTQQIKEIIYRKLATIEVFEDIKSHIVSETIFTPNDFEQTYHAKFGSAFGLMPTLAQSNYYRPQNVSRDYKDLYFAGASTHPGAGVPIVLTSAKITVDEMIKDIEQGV
Briefly: Inhibition of CrtN in Staphylococcus aureus USA300 LAC assessed as H2O2-induced bacterial death by measuring reduction in bacterial survival at 1 uM preincubated for 24 hrs followed by H2O2 addition measured after 30 mins by serial dilution method. Particulars: Staphylococcus aureus subsp. aureus USA300.

The subject of the next data set is Nannizzia gypsea. Kind of data set: Antifungal activity against Microsporum gypseum after 7 days by broth microdilution method. In kind it is functional, organism-based. On the technique in general: In broth dilution the organism is exposed to a series of concentrations in liquid medium.
For data set [7], the system named is Staphylococcus aureus. Kind of data set: Antibacterial activity against linezolid-resistant Staphylococcus aureus NRS271 infected in BALB/c mouse assessed as log reduction of colony forming units in liver at 0.4 mg, ip bid for 3.5 days administered 6 hrs post bacterial infection measured 84 hrs post infection. In kind it is functional.
Data set [8] relates to Staphylococcus aureus. Briefly: Induction of sensitization to immune clearance towards Staphylococcus aureus Newman infected in human whole blood assessed as bacterial killing by measuring bacterial survival after 6 hrs by serial dilution method relative to control. The data set is classed as functional.
The target of data set [9] is T2, 4,4'-diapophytoene desaturase (4,4'-diaponeurosporene-forming) (Staphylococcus aureus (strain Mu50 / ATCC 700699), UniProt Q99R76).
T2 sequence (Q99R76 whole entry): T1 sequence (whole entry) with Q500R
Briefly: Inhibition of CrtN in vancomycin-intermediate Staphylococcus aureus Mu50 assessed as reduction in staphyloxanthin levels after 48 hrs by spectrophotometric method-based pigment inhibition assay. Details: species or system Staphylococcus aureus subsp. aureus Mu50.

In data set [10] the test system is Staphylococcus aureus. Briefly: Antibacterial activity against linezolid-resistant Staphylococcus aureus NRS271 infected in BALB/c mouse assessed as reduction of bacterial burden in heart at 0.4 mg, ip bid administered at 24 hrs prior to bacterial infection dosed at 12 intervals for 4.5 days.
Data set [11] has as its target T3, 4,4'-diapophytoene desaturase (4,4'-diaponeurosporene-forming) (Staphylococcus aureus (strain Newman), UniProt O07855).
T3 sequence (O07855 whole entry): T1 sequence (whole entry) with Q500R
Kind of data set: Inhibition of Staphylococcus aureus Newman […]-tagged CrtN expressed in Escherichia coli BL21(DE3))/pET28a::CrtN assessed as reduction in staphyloxanthin levels using diapophytoene as substrate after overnight incubation. Details: species or system Staphylococcus aureus subsp. aureus str. Newman.

Data set [12] has as its system Staphylococcus aureus. Kind of data set: Antibacterial activity against vancomycin-intermediate Staphylococcus aureus Mu50 infected in BALB/c mouse assessed as reduction of bacterial burden in liver at 0.4 mg, ip bid for 3.5 days administered 6 hrs post bacterial infection measured 84 hrs post infection. In kind it is functional, organism-based.
In data set [13] the target is T3, 4,4'-diapophytoene desaturase (4,4'-diaponeurosporene-forming). Kind of data set: Inhibition of CrtN in Staphylococcus aureus Newman assessed as reduction in staphyloxanthin levels after 48 hrs by spectrophotometric method-based pigment inhibition assay. Details: species or system Staphylococcus aureus subsp. aureus str. Newman.
Data set [14] relates to Staphylococcus aureus. Kind of data set: Antibacterial activity against vancomycin-intermediate Staphylococcus aureus Mu50 infected in BALB/c mouse assessed as reduction of bacterial burden in heart at 0.4 mg, ip bid for 3.5 days administered 6 hrs post bacterial infection measured 84 hrs post infection relative to control. The data set is classed as functional. Details: scale not given: the % may be the effect or the level left.

The subject of data set [15] is Staphylococcus aureus. Kind of data set: Antibacterial activity against linezolid-resistant Staphylococcus aureus NRS271 infected in BALB/c mouse assessed as reduction of bacterial burden in heart at 0.1 mg, ip bid administered at 24 hrs prior to bacterial infection dosed at 12 intervals for 4.5 days.
In data set [16] the target is T3, 4,4'-diapophytoene desaturase (4,4'-diaponeurosporene-forming). Briefly: Inhibition of CrtN in linezolid-resistant Staphylococcus aureus NRS271 assessed as reduction in staphyloxanthin levels after 48 hrs by spectrophotometric method-based pigment inhibition assay.
The target in data set [17] is T4, 4,4'-diapophytoene desaturase (4,4'-diaponeurosporene-forming) (Staphylococcus aureus (strain Mu50 / ATCC 700699)) (UniProt Q99R76).
T4 sequence (whole entry): T1 sequence (whole entry) with Q500R
Briefly: Inhibition of CrtN in Staphylococcus aureus Mu50 assessed as H2O2-induced bacterial death by measuring reduction in bacterial survival at 1 uM preincubated for 24 hrs followed by H2O2 addition measured after 30 mins by serial dilution method. Particulars: Staphylococcus aureus subsp. aureus Mu50.

The half-life is how long it takes for the measured level to halve. For orientation: IC50 means the midpoint of a concentration-inhibition curve. Turning to `CN(C/C=C/C=C/c1ccc(C(F)(F)F)cc1)Cc1ccc2c(c1)OCCO2.Cl`, the Activity in the data set on Staphylococcus aureus [1] is 86.7%; in the data set with Staphylococcus aureus [5], 99%; with Staphylococcus aureus [7], “<=0.75 log10CFU”; in the data set on Staphylococcus aureus [14], 99%. Besides, the “growth inhibition (GI)” value with Staphylococcus aureus [2] and in the data set with Staphylococcus aureus [3] was “Non-Toxic” each time. Also, in data set [4], the half-life at 2 µM amounted to 7.9 min. Besides, the result in the data set on Trichophyton verrucosum, with Trichophyton rubrum and in the data set with Nannizzia gypsea was inactive. Besides, the inhibition entry in data set [6] and in [17] was “Active” throughout. In addition, the Survival in the data set on Staphylococcus aureus [8] is given as below 0.5%. Further, the IC50 is below 0.1 nM in [9], 270 nM in data set [11], 2.2 nM in [13] and 0.6 nM in [16]. The outcome with Staphylococcus aureus [10], with Staphylococcus aureus [12] and with Staphylococcus aureus [15] was Active.
